How the values were obtained:
[1] = Clarity of oral gel phase batches: absorbance at 610 nm (Lambda 25 UV/VIS), original and diluted; assay type: physicochemical; conditions: for Absorbance: 610 nm
Protocol: The clarity of samples with different actives is compared, and the precipitation characteristic of ZLC gel phase by dilution is evaluated. […] Zinc ion concentration in the following batches are all prepared at 0.5% (w/w) zinc level.
Lambda 25 UV/VIS Spectrometer (PerkinElmer) is used to obtain absorbance information for all samples in order to compare the clarity of gel phase between different actives. Absorbance is a logarithmic measure of the amount of light that is absorbed when passing through a substance. Since the particles in the gel absorb light, the more particles existing in solution, the more light absorbed by the gel. Thus, a small number of absorbance of a gel indicates a higher clarity. The absorbance is corrected by using deionized (DI) water as the blank solution under the light source wavelength of 610 nm.

[2] = pH of oral gel phase batches, original and diluted; assay type: physicochemical; conditions: original gel phase batch with the named active
[3] = Turbidity (percent transmission, TurbiScan) of mouthwash batches, original and diluted; assay type: physicochemical; conditions: zinc 1.01 wt %
Protocol: Four 500 g mouthwash batches which contain NaF, ZLC, ZnCl2 and ZnO as active ingredient are formulated with the ingredients shown in Table 1. The objective of this study is to compare the clarity of samples with different actives. Turbidity is evaluated by the percent transmission of light through the solution as measured by a TurbiScan® dispersion stability analyzer. The higher the percent transmission, the more transparent the composition. […] The concentration of zinc ions in ZLC solution is 25300 ppm obtained by ICP (Inductively Coupled Plasma) analysis, which corresponds to approximately 17% weight of ZLC actives in the solution. Zinc ion concentration in all batches is controlled to same level, i.e., 1.01 wt %. Among the four batches, the one that has ZnO as active appears milk white, with 0% transmission, while the other three samples are as clear as the deionized water (Table 2).
All original mouthwash batches are diluted into 2 fold, 4 fold, 8 fold, 16 fold and 32 fold. Turbidity measurements are performed after all solutions are prepared and well shaken. The turbidity data of the samples are shown in Table 3, 4, 5 and 6, for the dilutions of mouthwash containing NaF, ZLC, ZnCl2 and ZnO respectively.

[4] = Dilution experiment of ZLC neat solution: visible flocculation/precipitation at 37° C.; assay type: physicochemical
Protocol: Various dilutions of ZLC are prepared to evaluate its efficiency in producing visible precipitates and/or flocculation, which can be delivered in situ onto an oral surface or into a dental opening, such as open tubules.
(§1) A neat solution of ZLC is prepared by 1), reacting 0.5 mole of ZnO powder with 1 mole of lysine HCl in 1 liter of water at room temperature for about 2 hours, and 2) collecting the supernatant through centrifugation followed by filtration using a 0.45 micron membrane. The neat solution has a zinc concentration of 2.39% by weight, and a pH of about 7.03.
(§2) Dilution experiment is conducted by mixing the neat solution with deionized water. The neat solution is diluted by 2×, 4×, 6×, 7×, 8×, 10×, 12×, 16×, 20×, 24×, 28×, and 32×, corresponding to initial zinc concentrations of 1.20%, 0.598%, 0.398%, 0.341%, 0.299%, 0.239%, 0.199%, 0.149%, 0.120%, 0.0996%, 0.0854%, 0.0747%, by weight, respectively. The diluted samples are kept at 37° C., and the rates at which flocculation/precipitation occurred are monitored.

[5] = pH of ZLC neat solution and final diluted samples; assay type: physicochemical; conditions: neat solution, zinc 2.39% by weight
Protocol: as §1, §2
pH values of final diluted samples are suitable for oral care applications. […] These pH values were well within the range of 5.5 to 10, which defines the suitable range for oral care formulations.

[6] = Deposition/occlusion assay on dentine slices, confocal imaging; design: species or system human
Protocol: The deposition/occlusion assay is conducted using human dentine slices and the neat solution of Example 5. The dentine slices were prepared by cutting human tooth into thin dentine sections of about 800 microns in thickness, choosing a test side, sanding said test side using a sandpaper of about 600 grit, polishing said test side using a Buehler polishing cloth and 5 micron Buehler aluminum oxide, acid-etching said dentine section in 1% (by weight) citric acid solution for about 20 seconds, sonicating said dentine section for 10 minutes, and storing said dentine section in phosphate buffered saline (PBS, pH 7.4).
For treatment, the neat solution is diluted 16-fold with water, yielding a treatment solution with initial zinc concentration of about 0.149% by weight. The dentine section is immersed in the treatment solution for 1 hour at 37° C. The treated dentine section is then removed from the treatment solution, and rinsed 4 times, each time with 1 mL of PBS. The dentine section is then dried using a paper-based tissue and examined under confocal microscope in both XYZ and XYZ modes. Subsequent treatments are conducted in the same manner.
Dentine sections, as prepared in Example 6, are repeatedly treated with ZLC dilutions with initial zinc concentration of 0.0747% by weight. […] The dentine section is examined under the confocal microscope after each treatment.

[7] = gel phase batch, 2 fold dilution
[8] = gel phase batch, 4 fold dilution
[9] = gel phase batch, 8 fold dilution
[10] = gel phase batch, 16 fold dilution
[11] = gel phase batch, 32 fold dilution
[12] = original gel phase batch with the named active, DI water blank, 0.5% (w/w) zinc
[13] = original gel phase batch with the named active
[14] = initial zinc 0.0747% (32-fold dilution), 10 minutes at 37° C. each
[15] = neat solution diluted 16-fold, zinc about 0.149%, 1 hour at 37° C. each

Molecule | Absorbance [1, 7] | Absorbance [1, 8] | Absorbance [1, 9] | Absorbance [1, 10] | Absorbance [1, 11] | Absorbance [1, 12] | pH [2] | Appearance / dissolution of active in gel phase [1, 13] | also measured
[F-].[Na+] [NaF, Sodium Fluoride] | 0.0106 | 0.0104 | 0.0107 | 0.0075 | 0.0137 | 0.0344 | 7.63 | – | –
[Cl-].[Cl-].[Zn+2] [ZnCl2] | 0.7315 | 0.3700 | 0.1701 | 0.0570 | 0.0280 | 0.9204 | 5.25 | cloudy | –
[O]=[Zn] [ZnO] | 2.4630 | 2.5340 | 2.1883 | 1.8638 | 1.0492 | 2.4626 | 8.30 | not dissolved | Appearance / clarity of mouthwash batch ([3]; original mouthwash batch with the named active): milk white; Turbidity (% Transmission) ([3]; original mouthwash batch, undiluted): 0%
[Zn(C6H14N2O2)2Cl]^+Cl^− [ZLC] | – | – | 0.1860 | 0.1336 | – | 0.1765 | 7.37 | homogenous solution | Flocculation observation two hours after mixing ([4]; additional sample with initial zinc concentration 0.299%): presence of flocculation; Flocculation/precipitation observation after a total of 19 hours ([4]; all samples except initial zinc concentration 1.20%): flocculation and/or precipitation can be observed; Time to some visible flocculation after mixing stock solution with water ([4]; dilutions with initial zinc concentrations 0.149% and 0.199%): ≤ 30 min; Flocculation observation one and a half hours after mixing ([4]; dilutions with initial zinc concentrations between 0.0747% and 0.239%): visible flocculation; Flocculation observation one hour from mixing ([4]; dilutions with initial zinc concentrations between 0.0854% and 0.239%): visible flocculation; Relative amount of precipitate after a total of 19 hours ([4]; initial zinc concentrations between 0.0747% and 0.239%): the most precipitates; pH [5]: about 7.03; Deposition by confocal imaging after 4 consecutive treatments [6, 14]: significant surface deposition; Deposition/occlusion by confocal imaging after 12 consecutive treatments [6, 14]: complete surface coverage; Visible precipitation during treatment ([6]; initial zinc 0.0747%, 10 minutes at 37° C.): no precipitation is observed by naked eyes; Deposition/occlusion by confocal imaging, first treatment ([6]; neat solution diluted 16-fold, zinc about 0.149%, 1 hour at 37° C.): noticeable deposition; Deposition/occlusion by confocal imaging, second treatment [6, 15]: complete surface coverage, including blocking of substantially all tubule openings; Deposition/occlusion by confocal imaging, third treatment [6, 15]: complete surface coverage and complete blocking of tubule openings; Thickness of surface deposits, second treatment [6, 15]: ≥ 10 microns; Thickness of surface deposits, third treatment [6, 15]: ≥ 25 microns

Source: patent publication US9980890B2, “Zinc amino acid halide mouthwashes” (Colgate-Palmolive Company, priority 2012, dated 2018)
